Consider three compounds from ChEMBL document CHEMBL1201862, “PubChem BioAssay data set” (2004).

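1) Cells in 96-well plates. 2) Compound, 48 h, 5 concentrations. 3) Linear interpolation between surrounding doses. 4) Unreached endpoint = highest concentration. GI50 = concentration required for 50% inhibition of growth.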 Activity calls are given as the source filed them. Rule as the data show it: active = GI50 up to about 1.1 µM and inactive = higher. Bounds are passed on as bounds.

Among the test systems are A498; A549; BT-549; CCRF-CEM; EKVX; HOP-62; HT-29; Hs-578T; LOX IMVI; MCF7; MOLT-4; NCI/ADR-RES; SK-MEL-28; SK-MEL-2; SK-OV-3; SN12C; SNB-75; SW-620; T47D; U-251.
What all share (experiment): growth of human tumour cells (NCI), 48 h

For `CC1=CC(O)C(C(O)(C(F)(F)F)C(F)(F)F)C(C)(C)C1` (stereo not given), the GI50 in the experiment with A498 was 0.0296 µM (active); in the experiment on A549, > 10 µM (inactive); in the experiment with BT-549, > 10 µM (inactive); with CCRF-CEM, > 10 µM (inactive); with EKVX, > 10 µM (inactive); in the experiment with HOP-62, > 10 µM (inactive). The GI50 with HT-29, in the experiment with Hs-578T, with LOX IMVI, with MCF7, with MOLT-4 and in the experiment on NCI/ADR-RES was > 10 µM (inactive) each time. For the same compound, the GI50 in the experiment on SK-MEL-28, in the experiment with SK-MEL-2, in the experiment on SK-OV-3, in the experiment with SN12C, in the experiment on SNB-75 and in the experiment with SW-620 was > 10 µM (inactive) in each case. Besides, the GI50 in the experiment on T47D and with U-251 was > 10 µM (inactive) each time.
With `CC(C)(C)c1cc(C(C)(C)C)c2c(c1O)OC(=O)CS2`, the GI50 is 13 µM (inactive) with A498; 3.59 µM (inactive) in the experiment on A549; 8.32 µM (inactive) with BT-549; 4.17 µM (inactive) with CCRF-CEM; 4.31 µM (inactive) with EKVX; 7.13 µM (inactive) with HOP-62. The GI50 in the experiment with HT-29 was 4.34 µM (inactive); in the experiment on Hs-578T it was 2.84 µM (inactive); with LOX IMVI, 8.47 µM (inactive); in the experiment on MCF7 it was 3.82 µM (inactive); in the experiment with MOLT-4, 4.61 µM (inactive); in the experiment with NCI/ADR-RES it was 4.55 µM (inactive). In addition, the GI50 with SK-MEL-28 is 13.4 µM (inactive); with SK-MEL-2, 6.93 µM (inactive); in the experiment on SK-OV-3 it was 13.4 µM (inactive); with SN12C, 5.79 µM (inactive); in the experiment with SNB-75, 1.15 µM (inactive); in the experiment on SW-620, 6.52 µM (inactive). The GI50 with T47D was 4.56 µM (inactive); with U-251, 4.78 µM (inactive).
Take `O=C(CC(=O)Nc1ccccc1Cl)NNC(Sc1ccccc1)c1cc(/N=N/c2ccc(Br)cc2)ccc1O` (stereo not given): the GI50 with A498 is 2.39 µM (inactive); in the experiment on A549, 3.08 µM (inactive); with BT-549 it was 1.66 µM (inactive); in the experiment on CCRF-CEM, 0.409 µM (active); in the experiment on EKVX it was 3.29 µM (inactive); in the experiment with HOP-62 it was 2.56 µM (inactive). Besides, the GI50 in the experiment with HT-29 was > 10 µM (inactive); in the experiment with Hs-578T it was 3.13 µM (inactive); in the experiment on LOX IMVI, 0.927 µM (active); with MCF7, 0.681 µM (active); in the experiment on MOLT-4 it was 0.321 µM (active); in the experiment on NCI/ADR-RES, 1.28 µM (inactive). Besides, the GI50 in the experiment with SK-MEL-28 was 2.69 µM (inactive); in the experiment on SK-MEL-2, 3.3 µM (inactive); in the experiment with SK-OV-3, 3.03 µM (inactive); in the experiment on SN12C, 2.22 µM (inactive); in the experiment with SNB-75 it was 4.8 µM (inactive); with SW-620, 0.69 µM (active). Moreover, the GI50 was 2.02 µM (inactive) in the experiment on T47D and 1.59 µM (inactive) in the experiment on U-251.
